14 compounds from patent publication US9447086B2, “6-amino acid heteroaryldihydropyrimidines for the treatment and prophylaxis of hepatitis B virus infection” (priority 2012, dated 2016) can be followed below.

SMILES strings stand for the structures. Converted amounts (≈) assume the structure as drawn. Like-named read-outs stand apart in the source and are kept apart here.

Series [1] in a line: Lyophilisation solubility assay (Lysa). Format: physicochemical. The settings on record: phosphate buffer, pH 6.5, aqueous buffer, thermodynamic from solid. Put shortly: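 Duplicate samples from 10 mM DMSO stocks are dried, redissolved in 0.05 M phosphate buffer pH 6.5, stirred 1 h, shaken 2 h and left overnight. Filtrate and its 1/10 dilution are quantified by direct UV or HPLC-UV, giving solubility in μg/mL.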

For series [2], the system named is HBV. In words: Selectivity index (CC50 value/EC50 value). The class given is cell-based, Hepatitis B virus. The source says: Based on FDA guidance, in order to support clinical testing in humans, the assessment of acceptable risk-benefit has to be achieved by providing clear evidence of in vitro antiviral activity (EC50) and cytotoxicity (CC50). It is important to establish that an investigational product has antiviral activity at concentrations that can be achieved in vivo without inducing toxic effects to cells. Furthermore, in a cell culture model, apparent antiviral activity of an investigational product can be the result of host cell death after exposure to the product. The relative effectiveness of the compound in inhibiting viral replication compared to inducing cell death is defined as the selectivity index (CC50 value/EC50 value). It is desirable to have a high selectivity index giving maximum antiviral activity with minimal cell toxicity.
The relative effectiveness of the compound in inhibiting viral replication compared to inducing cell death is defined as the selectivity index (CC50 value/EC50 value). It is desirable to have a high selectivity index giving maximum antiviral activity with minimal cell toxicity.

Series [3] is described as follows: Metabolic stability study in human microsome. The class given is in vitro ADME. Summed up:
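Human liver microsomes (0.5 mg/mL) with 1 μM compound in 100 mM phosphate pH 7.4 at 37 °C, started with 1 mM NADPH or an NADPH-regenerating system. Samples taken at 0, 3, 6, 9, 15 and 30 min, quenched in methanol. Parent remaining measured by LC-MS/MS; no-cofactor controls included.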

In series [4] the test system is HBV. In words: Anti-HBV activity in vitro in HepG2.2.15 cells (extracellular HBV DNA by qPCR). The class given is cell-based, Hepatitis B virus. The settings on record: Hepatitis B virus. Summed up: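 HepG2.2.15 cells, which constitutively produce HBV, were seeded overnight and then treated for 5 days with half-log serially diluted compounds at 0.5% final DMSO. Extracellular HBV DNA in culture supernatant was extracted and quantified by qPCR.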
(In general: Quantitative PCR measures a nucleic acid by following its amplification.)

The nature of series [5]: Cytotoxicity (CC50) in HepDE19 cells, CCK-8 cell viability. The class given is cell-based. The settings on record: human, HepDE19 cells. The text has this: HepG2.2.15 and HepDE19 are stably-transfected cell lines containing the HBV genome. Both cell lines are derived from the hepatoblastoma cell line Hep G2 (American Type Culture Collection, ATCC® HB-8065™) by the published procedures described in references: MA Selles et al. Proc. Natl. Acad. Sci. USA 1987, 84, 1005-1009 and H Guo et al. Journal of Virology 2007, 81, 12472-12484, respectively. Both cell lines were maintained in Dulbecco's modified Eagle's medium (DMEM)-F12 medium supplemented with 10% fetal bovine serum, 100 U/mL penicillin, 100 μg/mL streptomycin, and 0.5 mg/mL of G418.
Five days after treatment, cell viability was measured by addition of 20 μL of CCK-8 reagent. Two hours after incubation at 37° C., the absorbance at wavelengths of 450 nm and 630 nm (OD450 and OD630) was recorded by a plate reader.

[6] abbreviates: HepG2.2.15 cells, in-house data, read-out: EC50.

For the compound `CCOC(=O)C1=C(CN2CCOC[C@H]2C(=O)O)NC(c2ncoc2C)=N[C@H]1c1ccc(F)cc1Br` [Example 69, (S)-4-[(R)-6-(2-Bromo-4-fluoro-phenyl)-5-ethoxycarbonyl-2-(5-methyl-oxazol-4-yl)-3,6-dihydro-pyrimidin-4-ylmethyl]-morpholine-3-carboxylic acid], the solubility (thermodynamic) (as a rule, solubility found after equilibrating the solid with the medium) in series [1] was more than 658 µg/mL. In addition, the “Selectivity index (CC50/EC50)” value with HBV [2] was 9500. The “Human Hepatic Clearance” value in series [3] worked out at 0 mL/min/kg. Besides, the EC50 – broadly, the concentration needed to bring the measured effect to its halfway point – in the series with HBV [4] (setting [6]) turned out to be 6 nM. Moreover, the CC50 (usually the concentration at which the toxic effect on the cells reaches its halfway point) at 5 days in series [5] (read-out: CC50) came to 57000 nM.

Consider `CCOC(=O)C1=C(CN2CC(F)(F)CC[C@H]2C(=O)O)NC(c2nccs2)=N[C@H]1c1ccccc1Cl` [Example 111, (R)-6-((S)-2-Carboxy-5,5-difluoro-piperidin-1-ylmethyl)-4-(2-chloro-phenyl)-2-thiazol-2-yl-1,4-dihydro-pyrimidine-5-carboxylic acid ethyl ester], for which the solubility (thermodynamic) in series [1] was more than 620 µg/mL. In the series on HBV [2], the “Selectivity index (CC50/EC50)” value is 17241. Also, in series [3], the “Human Hepatic Clearance” value is 5.31 mL/min/kg. The EC50 in the series on HBV [4] (setting [6]) is 5.8 nM. The CC50 at 5 days in series [5] (read-out: CC50) was more than 100000 nM.

`CCOC(=O)C1=C(CN2CCOC[C@H]2C(=O)O)NC(c2nccs2)=N[C@H]1c1ccc(Cl)cc1F` [Example 49, (S)-4-[(R)-6-(4-Chloro-2-fluoro-phenyl)-5-ethoxycarbonyl-2-thiazol-2-yl-3,6-dihydro-pyrimidin-4-ylmethyl]-morpholine-3-carboxylic acid] had a solubility (thermodynamic) in series [1] of more than 679 µg/mL. The “Selectivity index (CC50/EC50)” value in the series with HBV [2] is listed as 8936. For the same compound, the “Human Hepatic Clearance” value in series [3] turned out to be 0 mL/min/kg. The EC50 in the series on HBV [4] (setting [6]) came to 4.7 nM. Moreover, the CC50 at 5 days in series [5] (read-out: CC50) came to 42000 nM.

The compound `CCOC(=O)C1=C(CN2CCOC[C@H]2C(=O)O)NC(c2nccn2C)=N[C@H]1c1cccc(F)c1Cl` [Example 97, (S)-4-[(R)-6-(2-Chloro-3-fluoro-phenyl)-5-ethoxycarbonyl-2-(1-methyl-1H-imidazol-2-yl)-3,6-dihydro-pyrimidin-4-ylmethyl]-morpholine-3-carboxylic acid] registered a solubility (thermodynamic) in series [1] of more than 640 µg/mL. The “Selectivity index (CC50/EC50)” value with HBV [2] amounted to 8800. In series [3], the “Human Hepatic Clearance” value is reported as 1.63 mL/min/kg. Further, the EC50 in the series with HBV [4] (setting [6]) came to 5 nM. Besides, in series [5] (read-out: CC50), the CC50 at 5 days was 44000 nM.

As to `CCOC(=O)C1=C(CN2CCOC[C@H]2C(=O)O)NC(c2nccs2)=N[C@H]1c1ccc(F)c(F)c1` [Example 42, (S)-4-[(S)-6-(3,4-Difluoro-phenyl)-5-ethoxycarbonyl-2-thiazol-2-yl-3,6-dihydro-pyrimidin-4-ylmethyl]-morpholine-3-carboxylic acid], the thermodynamic solubility in series [1] was more than 613 µg/mL. Besides, in the series on HBV [2], the “Selectivity index (CC50/EC50)” value is recorded as more than 10000. Also, the “Human Hepatic Clearance” value in series [3] was 5.56 mL/min/kg. In the series on HBV [4] (setting [6]), the EC50 turned out to be 10 nM. Besides, in series [5] (read-out: CC50), the half-maximal cytotoxic concentration (CC50) at 5 days was more than 100000 nM.

Take `COC(=O)C1=C(CN2CC(F)(F)C[C@H]2C(=O)O)NC(c2nc(C(F)(F)F)cs2)=N[C@H]1c1ccc(F)cc1Cl` [Example 25, (R)-6-((S)-2-Carboxy-4,4-difluoro-pyrrolidin-1-ylmethyl)-4-(2-chloro-4-fluoro-phenyl)-2-(4-trifluoromethyl-thiazol-2-yl)-1,4-dihydro-pyrimidine-5-carboxylic acid methyl ester]: the thermodynamic solubility in series [1] was 546 µg/mL (≈ 937 µM). In addition, the “Selectivity index (CC50/EC50)” value in the series on HBV [2] was more than 20000. In addition, in series [3], the “Human Hepatic Clearance” value was determined as 9.34 mL/min/kg. In addition, the half-maximal effective concentration (EC50) in the series with HBV [4] (setting [6]) turned out to be 5 nM. The CC50 at 5 days in series [5] (read-out: CC50) was more than 100000 nM.

`CCOC(=O)C1=C(CN2CCOC[C@H]2C(=O)O)NC(c2nccs2)=N[C@H]1c1ccc(F)cc1Br` [Example 122, (S)-4-(((R)-6-(2-Bromo-4-fluorophenyl)-5-(ethoxycarbonyl)-2-(thiazol-2-yl)-3,6-dihydropyrimidin-4-yl)methyl)morpholine-3-carboxylic acid]: in series [1], the thermodynamic solubility was more than 722 µg/mL. In the series on HBV [2], the “Selectivity index (CC50/EC50)” value came to 55769. Also, the “Human Hepatic Clearance” value in series [3] was determined as 1.58 mL/min/kg. In addition, the EC50 in the series with HBV [4] (setting [6]) worked out at 1.3 nM. For the same compound, the CC50 at 5 days in series [5] (read-out: CC50) was determined as 73000 nM.

In the case of `COC(=O)C1=C(CN2CC(F)(F)C[C@H]2C(=O)O)NC(c2nccs2)=N[C@H]1c1ccc(F)cc1Br` [Example 84, (R)-4-(2-Bromo-4-fluoro-phenyl)-6-((S)-2-carboxy-4,4-difluoro-pyrrolidin-1-ylmethyl)-2-thiazol-2-yl-1,4-dihydro-pyrimidine-5-carboxylic acid methyl ester], in series [1], the thermodynamic solubility was more than 668 µg/mL. For the same compound, the “Selectivity index (CC50/EC50)” value in the series on HBV [2] is more than 41667. Moreover, the “Human Hepatic Clearance” value in series [3] was 9.3 mL/min/kg. In addition, the EC50 with HBV [4] (HepG2.2.15) is 2.4 nM. Besides, the cytotoxic concentration (CC50) at 5 days in series [5] is more than 100000 nM.

`COC(=O)C1=C(CN2CCOC[C@H]2C(=O)O)NC(c2ncc(F)cc2F)=N[C@H]1c1ccc(F)cc1Cl` [Example 6, (S)-4-[(R)-6-(2-Chloro-4-fluoro-phenyl)-2-(3,5-difluoro-pyridin-2-yl)-5-methoxycarbonyl-3,6-dihydro-pyrimidin-4-ylmethyl]-morpholine-3-carboxylic acid] had a thermodynamic solubility in series [1] of more than 100 µg/mL. Also, the “Selectivity index (CC50/EC50)” value in the series with HBV [2] is 3600. The “Human Hepatic Clearance” value in series [3] came to 6.28 mL/min/kg. Further, in the series with HBV [4] (setting [6]), the EC50 is 7.5 nM. Moreover, the CC50 at 5 days in series [5] (read-out: CC50) turned out to be 27000 nM.

In turn, `CCOC(=O)C1=C(CN2CC(F)(F)CC[C@@H]2C(=O)O)NC(c2nccs2)=N[C@H]1c1ccc(F)cc1Br` [Example 108, (R)-4-(2-Bromo-4-fluoro-phenyl)-6-((R)-2-carboxy-5,5-difluoro-piperidin-1-ylmethyl)-2-thiazol-2-yl-1,4-dihydro-pyrimidine-5-carboxylic acid ethyl ester] had a solubility (thermodynamic) in series [1] of 410 µg/mL (≈ 698 µM). Moreover, in the series with HBV [2], the “Selectivity index (CC50/EC50)” value was 1784. Also, the “Human Hepatic Clearance” value in series [3] came to 4.88 mL/min/kg. Besides, the EC50 in the series on HBV [4] (setting [6]) came to 18 nM. Also, the CC50 at 5 days in series [5] (read-out: CC50) stood at 33000 nM.

On to `CCOC(=O)C1=C(CN2CCO[C@H](C)[C@H]2C(=O)O)NC(c2nccs2)=N[C@H]1c1cccc(F)c1Cl` [Example 118, (2R,3S)-4-[(R)-6-(2-Chloro-3-fluoro-phenyl)-5-ethoxycarbonyl-2-thiazol-2-yl-3,6-dihydro-pyrimidin-4-ylmethyl]-2-methyl-morpholine-3-carboxylic acid], for which the solubility (thermodynamic) in series [1] is more than 630 µg/mL. Besides, in the series on HBV [2], the “Selectivity index (CC50/EC50)” value is more than 200000. Also, in series [3], the “Human Hepatic Clearance” value is 0.1 mL/min/kg. In addition, the EC50 in the series on HBV [4] (setting [6]) worked out at 0.5 nM. For the same compound, the CC50 at 5 days in series [5] (read-out: CC50) is more than 100000 nM.

Regarding `COC(=O)C1=C(CN2CCO[C@H](C)[C@H]2C(=O)O)NC(c2nccs2)=N[C@H]1c1ccc(F)c(F)c1` [Example 113, (2R,3S)-4-[(S)-6-(3,4-Difluoro-phenyl)-5-methoxycarbonyl-2-thiazol-2-yl-3,6-dihydro-pyrimidin-4-ylmethyl]-2-methyl-morpholine-3-carboxylic acid], the solubility (thermodynamic) in series [1] was more than 615 µg/mL. The “Selectivity index (CC50/EC50)” value in the series on HBV [2] is on record as more than 6061. In addition, in series [3], the “Human Hepatic Clearance” value is 0 mL/min/kg. Also, in the series with HBV [4] (setting [6]), the EC50 was found to be 16 nM. Also, the CC50 at 5 days in series [5] (read-out: CC50) was more than 100000 nM.

Compound `CCOC(=O)C1=C(CN2CCOC[C@H]2C(=O)O)NC(c2nccs2)=N[C@H]1c1cccc(F)c1` [Example 53, (S)-4-[(S)-5-Ethoxycarbonyl-6-(3-fluoro-phenyl)-2-thiazol-2-yl-3,6-dihydro-pyrimidin-4-ylmethyl]-morpholine-3-carboxylic acid] registered a solubility (thermodynamic) in series [1] of more than 621 µg/mL. In addition, the “Selectivity index (CC50/EC50)” value in the series on HBV [2] turned out to be 4769. Besides, the “Human Hepatic Clearance” value in series [3] is 0 mL/min/kg. The concentration giving a half-maximal response (EC50) in the series on HBV [4] (setting [6]) amounted to 14 nM. Further, the CC50 at 5 days in series [5] (read-out: CC50) came out at 69000 nM.

`COC(=O)C1=C(CN2CCOC[C@H]2C(=O)O)NC(c2ncoc2C)=N[C@H]1c1ccc(F)cc1Br` [Example 65, (S)-4-[(R)-6-(2-Bromo-4-fluoro-phenyl)-5-methoxycarbonyl-2-(5-methyl-oxazol-4-yl)-3,6-dihydro-pyrimidin-4-ylmethyl]-morpholine-3-carboxylic acid] displayed a solubility (thermodynamic) in series [1] of more than 678 µg/mL. The “Selectivity index (CC50/EC50)” value in the series with HBV [2] is reported as more than 13157. The “Human Hepatic Clearance” value in series [3] is listed as 1.67 mL/min/kg. For the same compound, the EC50 in the series with HBV [4] (setting [6]) was 7.6 nM. In addition, the CC50 at 5 days in series [5] (read-out: CC50) is more than 100000 nM.
